In the supplement of paper PMC10307832:

How the values were obtained:
Assay in all cases: relative viability (nuclei count vs DMSO), 5 days (fraction); higher = more cells survive
VX-11e = compound: CC1=CN=C(N=C1C2=CNC(=C2)C(=O)N[C@H](CO)C3=CC(=CC=C3)Cl)NC4=C(C=C(C=C4)F)Cl [VX-11e]
Outline: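 Cells of lung cancer lines were placed in 1536-well plates and kept overnight at 37 °C. Pinning then delivered five library-drug doses (not always all listed), spaced by √10, onto plates anchored with vehicle, and the cells were left 5 days without changing medium. One step fixed, permeabilised and stained them with Hoechst, and MetaXpress counted nuclei in 4× images. Viability, as a median over plates, is treated-well nuclei divided by vehicle-well nuclei, with acceptance only at control CV below 25% and at least one doubling.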

VX-11e + Bortezomib = compound: CC1=CN=C(N=C1C2=CNC(=C2)C(=O)N[C@H](CO)C3=CC(=CC=C3)Cl)NC4=C(C=C(C=C4)F)Cl [VX-11e] + CC(C)C[C@H](NC(=O)[C@H](Cc1ccccc1)NC(=O)c1cnccn1)B(O)O [Bortezomib] (partner 0.002 µM)
Outline: (§1)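 After 5 days of treatment, lung cancer cells in 1536-well plates were fixed and stained in a single step (final 0.05% Triton X-100, 1% formaldehyde, 1 ug/ml Hoechst) and their nuclei counted on 4× images. Treatment had been applied by pin tool the day after seeding as one drug alone or as a fixed anchor-drug dose with five library-drug doses (not always all listed) in √10 steps. Relative viability is the nuclei count of treated wells divided by that of vehicle wells, and values are medians of duplicate plates.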

VX-11e + Olaparib = compound: CC1=CN=C(N=C1C2=CNC(=C2)C(=O)N[C@H](CO)C3=CC(=CC=C3)Cl)NC4=C(C=C(C=C4)F)Cl [VX-11e] + O=C(c1cc(Cc2n[nH]c(=O)c3ccccc23)ccc1F)N1CCN(C(=O)C2CC2)CC1 [Olaparib] (partner 8 µM)
Outline: as §1

VX-11e + Lapatinib = compound: CC1=CN=C(N=C1C2=CNC(=C2)C(=O)N[C@H](CO)C3=CC(=CC=C3)Cl)NC4=C(C=C(C=C4)F)Cl [VX-11e] + CS(=O)(=O)CCNCc1ccc(-c2ccc3ncnc(Nc4ccc(OCc5cccc(F)c5)c(Cl)c4)c3c2)o1 [Lapatinib] (partner 2 µM)
Outline: as §1

VX-11e + Foretinib = compound: CC1=CN=C(N=C1C2=CNC(=C2)C(=O)N[C@H](CO)C3=CC(=CC=C3)Cl)NC4=C(C=C(C=C4)F)Cl [VX-11e] + COc1cc2c(Oc3ccc(NC(=O)C4(C(=O)Nc5ccc(F)cc5)CC4)cc3F)ccnc2cc1OCCCN1CCOCC1 [Foretinib] (partner 0.25 µM)
Outline: as §1

VX-11e + Crizotinib = compound: CC1=CN=C(N=C1C2=CNC(=C2)C(=O)N[C@H](CO)C3=CC(=CC=C3)Cl)NC4=C(C=C(C=C4)F)Cl [VX-11e] + C[C@@H](Oc1cc(-c2cnn(C3CCNCC3)c2)cnc1N)c1c(Cl)ccc(F)c1Cl [Crizotinib] (partner 1 µM)
Outline: as §1

VX-11e + Navitoclax = compound: CC1=CN=C(N=C1C2=CNC(=C2)C(=O)N[C@H](CO)C3=CC(=CC=C3)Cl)NC4=C(C=C(C=C4)F)Cl [VX-11e] + CC1(C)CCC(c2ccc(Cl)cc2)=C(CN2CCN(c3ccc(C(=O)NS(=O)(=O)c4ccc(N[C@H](CCN5CCOCC5)CSc5ccccc5)c(S(=O)(=O)C(F)(F)F)c4)cc3)CC2)C1 [Navitoclax] (partner 0.5 µM)
Outline: as §1

VX-11e + Linsitinib = compound: CC1=CN=C(N=C1C2=CNC(=C2)C(=O)N[C@H](CO)C3=CC(=CC=C3)Cl)NC4=C(C=C(C=C4)F)Cl [VX-11e] + C[C@]1(O)C[C@@H](c2nc(-c3ccc4ccc(-c5ccccc5)nc4c3)c3c(N)nccn32)C1 [Linsitinib] (partner 1 µM)
Outline: as §1

VX-11e + Alpelisib = compound: CC1=CN=C(N=C1C2=CNC(=C2)C(=O)N[C@H](CO)C3=CC(=CC=C3)Cl)NC4=C(C=C(C=C4)F)Cl [VX-11e] + Cc1nc(NC(=O)N2CCC[C@H]2C(N)=O)sc1-c1ccnc(C(C)(C)C(F)(F)F)c1 [Alpelisib] (partner 2 µM)
Outline: as §1

VX-11e + Pictilisib = compound: CC1=CN=C(N=C1C2=CNC(=C2)C(=O)N[C@H](CO)C3=CC(=CC=C3)Cl)NC4=C(C=C(C=C4)F)Cl [VX-11e] + CS(=O)(=O)N1CCN(Cc2cc3nc(-c4cccc5[nH]ncc45)nc(N4CCOCC4)c3s2)CC1 [Pictilisib] (partner 1 µM)
Outline: as §1

Cell Line EBC-1 has a relative viability (VX-11e; 0.04 µM) of 1.06, a relative viability (VX-11e; 0.1265 µM) of 1.01 and a relative viability (VX-11e; 0.4 µM) of 0.765. For the same cell line, the relative viability (VX-11e; 1.265 µM) was 0.77, the relative viability (VX-11e; 4 µM) was 0.221 and the relative viability (VX-11e + Bortezomib; first compound 0.04 µM) was 0.512. It also gave a relative viability (VX-11e + Bortezomib; first compound 0.1265 µM) of 0.528, a relative viability (VX-11e + Bortezomib; first compound 0.4 µM) of 0.599 and a relative viability (VX-11e + Bortezomib; first compound 1.265 µM) of 0.576. For the same cell line, the relative viability (VX-11e + Bortezomib; first compound 4 µM) was 0.239, the relative viability (VX-11e + Olaparib; first compound 0.04 µM) was 0.749 and the relative viability (VX-11e + Olaparib; first compound 0.1265 µM) was 0.72. It also gave a relative viability (VX-11e + Olaparib; first compound 0.4 µM) of 0.707, a relative viability (VX-11e + Olaparib; first compound 1.265 µM) of 0.66 and a relative viability (VX-11e + Olaparib; first compound 4 µM) of 0.192. It also gave a relative viability (VX-11e + Lapatinib; first compound 0.04 µM) of 0.207, a relative viability (VX-11e + Lapatinib; first compound 0.1265 µM) of 0.236 and a relative viability (VX-11e + Lapatinib; first compound 0.4 µM) of 0.19. For the same cell line, the relative viability (VX-11e + Lapatinib; first compound 1.265 µM) was 0.235, the relative viability (VX-11e + Lapatinib; first compound 4 µM) was 0.177 and the relative viability (VX-11e + Foretinib; first compound 0.04 µM) was 0.104. For the same cell line, the relative viability (VX-11e + Foretinib; first compound 0.1265 µM) was 0.107, the relative viability (VX-11e + Foretinib; first compound 0.4 µM) was 0.0992 and the relative viability (VX-11e + Foretinib; first compound 1.265 µM) was 0.111. It also gave a relative viability (VX-11e + Foretinib; first compound 4 µM) of 0.109, a relative viability (VX-11e + Crizotinib; first compound 0.04 µM) of 0.204 and a relative viability (VX-11e + Crizotinib; first compound 0.1265 µM) of 0.182. The relative viability (VX-11e + Crizotinib; first compound 0.4 µM) was 0.163, the relative viability (VX-11e + Crizotinib; first compound 1.265 µM) was 0.198 and the relative viability (VX-11e + Crizotinib; first compound 4 µM) was 0.18. The relative viability (VX-11e + Navitoclax; first compound 0.04 µM) was 0.362, the relative viability (VX-11e + Navitoclax; first compound 0.1265 µM) was 0.474 and the relative viability (VX-11e + Navitoclax; first compound 0.4 µM) was 0.325. The relative viability (VX-11e + Navitoclax; first compound 1.265 µM) was 0.271, the relative viability (VX-11e + Navitoclax; first compound 4 µM) was 0.168 and the relative viability (VX-11e + Linsitinib; first compound 0.04 µM) was 0.954. For the same cell line, the relative viability (VX-11e + Linsitinib; first compound 0.1265 µM) was 0.872, the relative viability (VX-11e + Linsitinib; first compound 0.4 µM) was 0.494 and the relative viability (VX-11e + Linsitinib; first compound 1.265 µM) was 0.371. It also gave a relative viability (VX-11e + Linsitinib; first compound 4 µM) of 0.19, a relative viability (VX-11e + Alpelisib; first compound 0.04 µM) of 0.816 and a relative viability (VX-11e + Alpelisib; first compound 0.1265 µM) of 0.766. The relative viability (VX-11e + Alpelisib; first compound 0.4 µM) was 0.632, the relative viability (VX-11e + Alpelisib; first compound 1.265 µM) was 0.693 and the relative viability (VX-11e + Alpelisib; first compound 4 µM) was 0.23. It also gave a relative viability (VX-11e + Pictilisib; first compound 0.04 µM) of 0.494, a relative viability (VX-11e + Pictilisib; first compound 0.1265 µM) of 0.436 and a relative viability (VX-11e + Pictilisib; first compound 0.4 µM) of 0.378. For the same cell line, the relative viability (VX-11e + Pictilisib; first compound 1.265 µM) was 0.201 and the relative viability (VX-11e + Pictilisib; first compound 4 µM) was 0.162.
